Assay results reported in patent US9423396B2, “Bodipy structure fluorescence probes for diverse biological applications” (National University of Singapore, priority 2011, dated 2016).

Test: Spectroscopic measurements (absorption, emission, quantum yield, extinction coefficient)
Type: physicochemical
Details: for Abs: absorption maximum; for Abs / ε / Flu / Qunt. Yield: BDNCA library; for Flu-Abs: difference of emission and absorption maxima; for ε: extinction coefficient, in M-1 cm-1 (unit assumed); for Flu: fluorescence emission maximum; for Qunt. Yield: quantum yield

| Compound | Abs | Flu-Abs | ε | Flu | Qunt. Yield |
| --- | --- | --- | --- | --- | --- |
| CC1=CC(/C=C/c2ccccc2Oc2ccc(F)cc2)=[N+]2C1=C(c1ccc(NC(=O)CCl)cc1)c1cccn1[B-]2(F)F [BDNCA-341] | 558 nm | 22 | 58,764 | 580 | 0.10 |
| CC1=CC(/C=C/c2cc(C)c(C)cc2C)=[N+]2C1=C(c1ccc(NC(=O)CCl)cc1)c1cccn1[B-]2(F)F [BDNCA-343] | 562 nm | 26 | 28,284 | 588 | 0.06 |
| CC1=CC(/C=C/c2cccc(OC(F)(F)C(F)F)c2)=[N+]2C1=C(c1ccc(NC(=O)CCl)cc1)c1cccn1[B-]2(F)F [BDNCA-345] | 621 nm |  | 12,082 | weak | weak |
| Cc1cc(/C=C/c2cc(OC(F)(F)F)ccc2O)n2c1C(c1ccc(NC(=O)CCl)cc1)=C1C=CC=[N+]1[B-]2(F)F [BDNCA-346] | 561 nm | 23 | 16,476 | 584 | 0.02 |
| COc1ccc(/C=C/C2=[N+]3C(=C(c4ccc(NC(=O)CCl)cc4)c4cccn4[B-]3(F)F)C(C)=C2)c(OC)c1C [BDNCA-347] | 569 nm | 35 | 34,874 | 604 | 0.08 |
| CC1=CC(/C=C/c2cccc(C)c2C)=[N+]2C1=C(c1ccc(NC(=O)CCl)cc1)c1cccn1[B-]2(F)F [BDNCA-349] | 556 nm | 22 | 36,247 | 578 | 0.03 |
| COc1ccc(/C=C/C2=[N+]3C(=C(c4ccc(NC(=O)CCl)cc4)c4cccn4[B-]3(F)F)C(C)=C2)cc1[N+](=O)[O-] [BDNCA-350] | 560 nm | 21 | 34,874 | 581 | 0.07 |
| CC1=CC(/C=C/c2ncc[nH]2)=[N+]2C1=C(c1ccc(NC(=O)CCl)cc1)c1cccn1[B-]2(F)F [BDNCA-353] | 570 nm | 44 | 15,652 | 614 | 0.01 |
| Cc1cc(/C=C/c2ccc(SC(F)(F)F)cc2)n2c1C(c1ccc(NC(=O)CCl)cc1)=C1C=CC=[N+]1[B-]2(F)F [BDNCA-363] | 558 nm | 18 | 41,190 | 576 | 0.08 |
| CC1=CC(/C=C/c2ccccc2OC(F)(F)F)=[N+]2C1=C(c1ccc(NC(=O)CCl)cc1)c1cccn1[B-]2(F)F [BDNCA-365] | 553 nm | 16 | 45,584 | 569 | 0.07 |
| COc1cc(O)c(/C=C/C2=[N+]3C(=C(c4ccc(NC(=O)CCl)cc4)c4cccn4[B-]3(F)F)C(C)=C2)c(OC)c1 [BDNCA-366] | 579 nm | 50 | 38,444 | 629 | 0.02 |
| CC1=CC(/C=C/c2cc3ccccc3o2)=[N+]2C1=C(c1ccc(NC(=O)CCl)cc1)c1cccn1[B-]2(F)F [BDNCA-368] | 578 nm | 23 | 21,968 | 601 | 0.03 |
| CC1=CC(/C=C/c2ccc(C)cc2C)=[N+]2C1=C(c1ccc(NC(=O)CCl)cc1)c1cccn1[B-]2(F)F [BDNCA-370] | 507 nm | 78 | 34,050 | 585 | 0.08 |
| COc1ccc(/C=C/c2cc(C)c3n2[B-](F)(F)[N+]2=CC=CC2=C3c2ccc(NC(=O)CCl)cc2)c(Cl)c1OC [BDNCA-372] | 565 nm | 29 | 69,474 | 594 | 0.13 |
| CC1=CC(/C=C/c2c[nH]c3ccccc23)=[N+]2C1=C(c1ccc(NC(=O)CCl)cc1)c1cccn1[B-]2(F)F [BDNCA-375] | 591 nm | 63 | 21,968 | 654 | 0.02 |
